These are literature values, as cited in patent US11464797B2, “Use of vitamin composition in preparing drug for preventing, treating, or delaying Alzheimer's disease” (Zensun (Shanghai) Science & Technology, Co., Ltd., priority 2017, dated 2022).

In series [1] the test system is patients with mild cognitive impairment (MCI). The conditions noted are these: long-term intake (6-48 months).
For series [2], the system named is ATP level in CA1 area. Conditions: after 10 min of hypoxia in rats, magnesium ion treated brain slices; untreated 16% of normal.

vitamin E: the cognitive function result in series [1] is listed as “effectively improve cognitive function”.
In the case of `[Mg+2]` [magnesium ion, magnesium], the “ATP level, of normal brain slices” value in series [2] is 32%.
